The results in this text go back to patent US5858684A, “Method of screening calcium receptor-active molecules” (priority 1995, dated 1999).

The experiment is described as follows: serum ionized Ca2+ in 5/6 nephrectomized rats (secondary hyperparathyroidism model). It counts as in vivo, rat. The note with it: 10 mg/kg i.p.; within 2 hours. An excerpt:
An accepted and widely used animal model of secondary hyperparathyroidism arising from chronic renal failure is the 5/6 nephrectomized rat. Animals receiving such surgery become initially hypocalcemic and, to maintain serum Ca^2+ levels, there is a compensatory hyperplasia of the parathyro:Ld glands and elevated levels of circulating PTH. Male Spracue-Dawley rats (250 g) received a 5/6 nephrectomy and were allowed to recover for 2 weeks. At this time they were normocalcemic (due to elevated levels of serum PTH).

Each structure is given as a SMILES string.

Regarding `COc1cccc([C@@H](C)NCCCc2ccccc2)c1` (single isomer, unassigned) [NPS R-467], the “serum ionized Ca2+ as % of controls” value is recorded as 83 % of controls.
